Values quoted from earlier work, collected in patent publication US9126163B2, “Nanoemulsions and processes for their preparation, and their use as formulations of plant protection agents and/or pesticides and/or cosmetic preparations” (Evonik Degussa GmbH, priority 2008, dated 2015).
Values after ≈ are worked out from the molar mass of the structure shown.

Molecule | solubility in water
Cc1c(COC(=O)[C@@H]2[C@H](/C=C(\Cl)C(F)(F)F)C2(C)C)cccc1-c1ccccc1 (racemic) [bifenthrin] | < 0.001 mg/L
Fc1ccc([C@]2(Cn3cncn3)O[C@H]2c2ccccc2Cl)cc1 (racemic) [epoxyconazole] | 6.63*10^−4 g/100 ml
CO/C=C(/C(=O)OC)c1ccccc1Oc1cc(Oc2ccccc2C#N)ncn1 [azoxystrobin] | 6 mg/L (≈ 14.9 µM)
COC(=O)Nc1nc2ccccc2[nH]1 [carbendazim] | 29 mg/L (≈ 152 µM)
O=C(Nc1ccc([N+](=O)[O-])cc1Cl)c1cc(Cl)ccc1O [niclosamide] | 100 mg/L (≈ 306 µM)
COc1cc(OC)nc(NC(=O)NS(=O)(=O)c2ncccc2C(=O)N(C)C)n1 [nicosulfuron] | 70 mg/L (≈ 171 µM)
CC1(C)C(C=C(Cl)Cl)C1C(=O)OCc1cccc(Oc2ccccc2)c1 (stereo not shown) [permethrin] | 0.006 mg/L (≈ 0.0153 µM)
CCCCCCCCCCCCCN1CC(C)OC(C)C1 (stereo not shown) [tridemorph] | 1.1 mg/L (≈ 3.7 µM)
abamectin | 0.007 to 0.01 mg/L
mancozeb | 6.2 ppm
